Measured values reported in EP1316317A1, “Hydrosoluble mixtures of cyproterone and/or an ester of it, processes to obtain them and uses thereof” (University of Liege, priority 2001, dated 2003).
Several values for one entry are separate records, joined by “and”; a condition that tells them apart may be missing. Identical values can stand only once.

Key:
[1] = Stability of CPA in aqueous solution, alone or as complex with βCD (HPLC); format: physicochemical
Method: Un complexe est formé par ajout de 2 ml de solution aqueuse de βCD 10 mM à 20 mg de CPA. Après agitation pendant 24 heures à 25°C, ces solutions sont filtrées sur filtre en PVDF de 0,45 µm (Millipore, Millex HV 0,45 µm). La formation du complexe est effectuée sur 8 échantillons différents.
Les solutions de référence de CPA sont préparées en ajoutant 2 ml de solution aqueuse à 20 mg de CPA. Après agitation pendant 24 heures à 25°C, ces solutions sont filtrées sur filtre en PVDF de 0,45 µm. 8 échantillons sont préparés.
(§1) Les échantillons sont conservés dans des conditions ambiantes (20°C) pendant 3 mois.
La concentration en CPA contenue dans les solutions de CPA seul ou sous forme de complexe est dosée par HPLC au temps 0, après 1 mois et après 3 mois.
L'appareillage et les conditions chromatographiques sont ceux tels qu'utilisés dans l'Exemple 3.

[2] = Phase-solubility diagram of CPA in aqueous cyclodextrin solutions (excess CPA, HPLC assay of filtrate); format: physicochemical; conditions: for Concentration en CPA (Solubilité du CPA en présence de HPβCD) / Concentration en CPA (Solubilité du CPA en présence de HPγCD) / Concentration en CPA (Solubilité du CPA en présence de RMβCD) / Concentration en CPA (Solubilité du CPA en présence de SBEβCD) / Concentration en CPA (Solubilité du CPA en présence de βCD) / Concentration en CPA (Solubilité du CPA en présence de γCD): 24 h at 25°C
Method: Les diagrammes de solubilité sont effectués en ajoutant un excès de CPA à des solutions de CD de concentration croissante. Après 24 heures d'agitation dans des bains thermostatisés à 25°C, ces solutions sont filtrées et la quantité de CPA solubilisée est dosée par HPLC.
Pesée de minimum 30 mg de CPA et ajout de 2 ml de solution de CD. Pour chaque concentration de CD, les essais sont répétés au moins deux fois. Des essais sont également effectués avec une solution aqueuse sans CD.
Les échantillons sont mis en agitation dans des bains thermostatisés à 25°C pendant 24 heures. Ensuite, ces échantillons sont filtrés sur filtre en polyvinyldifluoridène (PVDF) de 0,45 µm (Millipore, Millex HV 0,45 µm) et la concentration de CPA dans les filtrats est dosée par HPLC.
• Echantillonneur automatique Merck L-7200, Détecteur UV Merck L-7400, Pompe Merck L-7100 et intégrateur Merck D-2500.
• Colonne : Lichrospher RP18 (5 µm) 125 mm • Phase mobile : ACN/H2O 50/50 • Débit : 1,5 ml/min • Température : 25°C • Longueur d'onde : 282 nm • Etalon interne : propylparaben.

[3] = Adsorption of CPA on cellulose and PVDF filters (recovery after filtration); format: physicochemical; conditions: CPA 2 µg/ml (100 µg/ml diluted 50-fold), CD 10 mM
Method: Les complexes ont été préparés en diluant 50 fois une solution mère de CPA à 100 µg/ml dans un mélange eau/acétonitrile (ACN) 50/50, avec une solution aqueuse de cyclodextrine à 10 mM. Les différentes cyclodextrines utilisées sont la β-CD, la γCD, l'HPβCD, l'HPγCD et la RMβCD. Ces échantillons sont agités au vortex pendant au moins 1 minute. Etant donné la faible proportion de CPA par rapport à la concentration en cyclodextrine et le CPA étant déjà solubilisé dans le milieu, il n'est pas nécessaire d'agiter 24 heures à 25°C pour obtenir le complexe, ce dernier étant formé très rapidement.
Une solution de référence contenant seulement du CPA est préparée en diluant 50 fois la solution mère de CPA à 100 µg/ml dans un mélange eau/acétonitrile 50/50, avec de l'eau purifiée.
Chaque essai est répété à trois reprises. Ces échantillons sont ensuite filtrés en partie sur filtre en ester de cellulose et en partie sur filtre en PVDF. Les échantillons sont dosés avant et après filtration de façon à pouvoir calculer le pourcentage de récupération après filtration.

[4] = Stability of CPA in alkaline medium (stress conditions), alone or complexed with CDs (HPLC); format: physicochemical; conditions: CD 100 mM
Method: Les complexes sont préparés en ajoutant 2 ml de solution aqueuse de CD à 20 mg de CPA. Les solutions de CD utilisées pour préparer ces complexes sont des solutions de HPβCD, de HPγCD ou de RMβCD à une concentration de 100 mM. Après agitation pendant 24 heures à 25°C, ces solutions sont filtrées sur filtre en PVDF de 0,45 µm (Millipore, Millex HV 0,45 µm).
Les solutions de référence de CPA sont préparées en ajoutant 2 ml de solution aqueuse à 20 mg de CPA. Après agitation pendant 24 heures à 25°C, ces solutions sont filtrées sur filtre en PVDF de 0,45 µm (Millipore, Millex HV 0,45 µm).
Chaque essai est répété à 3 reprises et les échantillons sont conservés dans des étuves à température contrôlée à 25°C pendant 1 mois.
La concentration en CPA contenu dans les solutions de CPA seul ou sous forme de complexe est dosée par HPLC au temps 0 et après 1 mois et le pH des solutions est mesuré après 1 mois.
(§2) Les conditions chromatographiques sont telles qu'utilisées précédemment.
Après 1 mois, la libération de substances alcalines provenant des flacons a communiqué un pH alcalin aux solutions. Ce pH a été mesuré et varie entre 8 et 9 dans les différentes solutions. Ce pH alcalin a provoqué la dégradation de l'acétate de cyprotérone, par hydrolyse de la fonction ester.

[5] = water; background statement, no method given; cited from earlier work
[6] = Stability of CPA in aqueous solution, alone or as complex with RMβCD (HPLC); format: physicochemical
Method: Les complexes sont formés par ajout de 2 ml de solution aqueuse de RMβCD à 30 mg de CPA. Des solutions de RMβCD à différentes concentrations ont été utilisées: 12,5; 25; 50; 100 et 200 mM. Après agitation pendant 24 heures à 25°C, ces solutions sont filtrées sur filtre en PVDF de 0,45 µm (Millipore, Millex HV 0,45 µm).
Les solutions de référence de CPA sont préparées en ajoutant 2 ml de solution aqueuse à 30 mg de CPA. Après agitation pendant 24 heures à 25°C, ces solutions sont filtrées sur filtre en PVDF de 0,45 µm (Millipore, Millex HV 0,45 µm).
as §1
La concentration en CPA contenu dans les solutions de CPA seul ou sous forme de complexe est dosée par HPLC au temps 0, après 1 mois et après 3 mois.
as §2

[7] = CPA concentration at time 0, 1440 min

**Q.** What does the source list for acétate de cyprotérone [CPA]?
**A.** CPA retrouvé après 1 mois, Conc. ([1]; after 1 month at ambient conditions (20°C)): 2,2 µg/ml; CPA retrouvé après 1 mois, Pourcentage moyen CPA ([1]; after 1 month at ambient conditions (20°C), relative to time 0, 43800 min): 84,6%; CPA retrouvé après 3 mois, Conc. ([1]; after 3 months at ambient conditions (20°C)): 2,1 µg/ml; CPA retrouvé après 3 mois, Pourcentage moyen CPA ([1]; after 3 months at ambient conditions (20°C), relative to time 0, 131400 min): 79,3%; CPA au temps 0, Conc. ([1]; time 0, βCD 10 mM for the complex, n=8, 1440 min): 2,6 µg/ml; Concentration en CPA (Solubilité du CPA en présence de HPβCD) ([2]; HPβCD 25 mM): 308,0 µg/ml; Concentration en CPA (Solubilité du CPA en présence de HPβCD) ([2]; HPβCD 50 mM): 629,9 µg/ml; Concentration en CPA (Solubilité du CPA en présence de HPβCD) ([2]; HPβCD 100 mM): 1188,6 µg/ml; Concentration en CPA (Solubilité du CPA en présence de HPβCD) ([2]; HPβCD 200 mM): 2648,2 µg/ml; Concentration en CPA (Solubilité du CPA en présence de HPβCD) ([2]; HPβCD 12,5 mM): 147,1 µg/ml; Concentration en CPA (Solubilité du CPA en présence de HPγCD) ([2]; HPγCD 25 mM): 282,5 µg/ml; Concentration en CPA (Solubilité du CPA en présence de HPγCD) ([2]; HPγCD 50 mM): 578,9 µg/ml; Concentration en CPA (Solubilité du CPA en présence de HPγCD) ([2]; HPγCD 100 mM): 1512,0 µg/ml; Concentration en CPA (Solubilité du CPA en présence de HPγCD) ([2]; HPγCD 200 mM): 4291,1 µg/ml; Concentration en CPA (Solubilité du CPA en présence de HPγCD) ([2]; HPγCD 12,5 mM): 118,7 µg/ml; Concentration en CPA (Solubilité du CPA en présence de RMβCD) ([2]; RMβCD 25 mM): 430,9 µg/ml; Concentration en CPA (Solubilité du CPA en présence de RMβCD) ([2]; RMβCD 50 mM): 1169,9 µg/ml; Concentration en CPA (Solubilité du CPA en présence de RMβCD) ([2]; RMβCD 100 mM): 3222,1 µg/ml; Concentration en CPA (Solubilité du CPA en présence de RMβCD) ([2]; RMβCD 200 mM): 9598,7 µg/ml; Concentration en CPA (Solubilité du CPA en présence de RMβCD) ([2]; RMβCD 12,5 mM): 176,9 µg/ml; Concentration en CPA (Solubilité du CPA en présence de SBEβCD) ([2]; SBEβCD 25 mM): 461,8 µg/ml; Concentration en CPA (Solubilité du CPA en présence de SBEβCD) ([2]; SBEβCD 50 mM): 860,9 µg/ml; Concentration en CPA (Solubilité du CPA en présence de SBEβCD) ([2]; SBEβCD 100 mM): 1475,2 µg/ml; Concentration en CPA (Solubilité du CPA en présence de SBEβCD) ([2]; SBEβCD 200 mM): 2034,1 µg/ml; Concentration en CPA (Solubilité du CPA en présence de SBEβCD) ([2]; SBEβCD 12,5 mM): 243,9 µg/ml; solubilité du CPA sans cyclodextrine ([2]; water without cyclodextrin, 24 h agitation at 25°C, 1440 min): < 3 µg/ml and 2,6 µg/ml; Concentration en CPA (Solubilité du CPA en présence de βCD) ([2]; βCD 5 mM): 28,8 µg/ml; Concentration en CPA (Solubilité du CPA en présence de βCD) ([2]; βCD 10 mM): 56,7 µg/ml; Concentration en CPA (Solubilité du CPA en présence de βCD) ([2]; βCD 15 mM): 86,5 µg/ml; Concentration en CPA (Solubilité du CPA en présence de γCD) ([2]; γCD 25 mM): 436,6 µg/ml; Concentration en CPA (Solubilité du CPA en présence de γCD) ([2]; γCD 50 mM): 1041,0 µg/ml; Concentration en CPA (Solubilité du CPA en présence de γCD) ([2]; γCD 100 mM): 2368,9 µg/ml; Concentration en CPA (Solubilité du CPA en présence de γCD) ([2]; γCD 200 mM (so in the source)): 2266,8 µg/ml; Concentration en CPA (Solubilité du CPA en présence de γCD) ([2]; γCD 12,5 mM): 195,2 µg/ml; Pourcentage de CPA récupéré après filtration sur PVDF, Moyenne ([3]; PVDF filter): 88,7%; Pourcentage de CPA récupéré après filtration sur acétate de cellulose, Moyenne ([3]; cellulose filter): 2,9%; Conc. t1 mois ([4]; CPA concentration after 1 month at 25°C, alkaline pH 8 to 9): 0,4 µg/ml; Conc. t0 [4, 7]: 2,3 µg/ml; Pourcentage CPA après 1 mois ([4]; after 1 month at 25°C, alkaline pH 8 to 9, 43800 min): 17,6%; solubilité de l'acétate de cyprotérone dans l'eau [5]: ~2 µg/mL; Conc. t1 ([6]; CPA concentration after 1 month at ambient conditions (20°C)): 2,2 µg/ml; Conc. t0 [6, 7]: 2,7 µg/ml; Pourcentage t1 mois ([6]; CPA remaining after 1 month at 20°C, 43800 min): 83,7%; Pourcentage t3 mois ([6]; CPA remaining after 3 months at 20°C, 131400 min): 77,1%
